1 compound from ChEMBL document CHEMBL5727053, “Muscarinic M1 receptor positive allosteric modulators” (2019) can be followed below.

The target of the assay is T1, Muscarinic acetylcholine receptor M1 (Homo sapiens, UniProt P11229).
T1 sequence (P11229 whole entry): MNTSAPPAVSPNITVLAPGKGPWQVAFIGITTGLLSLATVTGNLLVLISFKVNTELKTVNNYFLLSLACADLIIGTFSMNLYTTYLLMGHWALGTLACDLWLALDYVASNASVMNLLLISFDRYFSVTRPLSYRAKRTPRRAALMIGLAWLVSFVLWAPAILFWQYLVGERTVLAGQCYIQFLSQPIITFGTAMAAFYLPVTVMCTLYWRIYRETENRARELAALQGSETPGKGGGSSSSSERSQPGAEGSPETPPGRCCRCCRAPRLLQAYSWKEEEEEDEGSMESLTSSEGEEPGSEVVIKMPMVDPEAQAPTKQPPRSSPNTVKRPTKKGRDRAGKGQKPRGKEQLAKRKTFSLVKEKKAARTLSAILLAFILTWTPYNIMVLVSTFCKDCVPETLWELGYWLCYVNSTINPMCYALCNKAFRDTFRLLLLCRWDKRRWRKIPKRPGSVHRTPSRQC
The assay can be described thus: Determination of Allosteric Potency EC50 Values for Muscarinic M1 Receptor: A stable CHO cell line expressing recombinant human Muscarinic M1 receptor and pCRE-Luc reporter system was used for cell-based assay. The assay offers a non-radioactive based approach to determine binding of a compound to GPCRs. In this specific assay, the level of intracellular cyclic AMP which is modulated by activation or inhibition of the receptor is measured. The recombinant cells harbor luciferase reporter gene under the control of cAMP response element.The above cells were grown in 96 well clear bottom white plates in Hams F12 medium containing 10% fetal bovine serum (FBS). Prior to the addition of compounds or standard agonist, cells were serum starved overnight. Increasing concentrations of test compounds were added along with EC20 of acetylcholine in OptiMEM medium to the cells. The incubation was continued at 37° C. in CO2 incubator for 4 hours. Medium was removed and cells were washed with phosphate buffered saline. The cells were lysed and luciferase activity was measured in a Luminometer. Luminescence units were plotted against the compound concentrations using Graphpad software. EC50 values of the compounds were defined as the concentration required in stimulating the luciferase activity by 50% in presence of EC20 of acetylcholine. On the technique in general: Reporter assays use an easily measured gene product as a stand-in for the process of interest.

Molecules are shown by their SMILES.

The term EC50 denotes the concentration giving half of the maximal effect.

As for `O=C(N[C@H]1CCCC[C@@H]1O)C1=CN(Cc2ccccc2)c2cccnc2O1`, the EC50 was 1 µM.
